The supplement of paper PMC10307832

What was measured:
Test in all cases: relative viability (nuclei count vs DMSO), 5 days (fraction); higher = more cells survive
Bleomycin + AZD7762 = compound: CC1=C(N=C(N=C1N)[C@H](CC(=O)N)NC[C@@H](C(=O)N)N)C(=O)N[C@@H]([C@H](C2=CN=CN2)OC3C(C(C(C(O3)CO)O)O)OC4C(C(C(C(O4)CO)O)OC(=O)N)O)C(=O)N[C@H](C)[C@H]([C@H](C)C(=O)N[C@@H]([C@@H](C)O)C(=O)NCCC5=NC(=CS5)C6=NC(=CS6)C(=O)NCCC[S+](C)C)O [Bleomycin] + NC(=O)Nc1cc(-c2cccc(F)c2)sc1C(=O)N[C@H]1CCCNC1 [AZD7762] (partner 0.2 µM); conditions: main component drawn
In short: (§1)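 The day after seeding in 1536-well plates, lung cancer cell lines were treated by pin tool with a single drug, or with a fixed anchor-drug dose together with five library-drug doses (not always all listed) in √10 steps. After 5 days, a combined fix-and-stain solution (final 0.05% Triton X-100, 1% formaldehyde, 1 ug/ml Hoechst) was added. Nuclei counted on 4× images gave relative viability as treated counts over vehicle counts, reported as the median of duplicate plates.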

Bleomycin + Tozasertib = compound: CC1=C(N=C(N=C1N)[C@H](CC(=O)N)NC[C@@H](C(=O)N)N)C(=O)N[C@@H]([C@H](C2=CN=CN2)OC3C(C(C(C(O3)CO)O)O)OC4C(C(C(C(O4)CO)O)OC(=O)N)O)C(=O)N[C@H](C)[C@H]([C@H](C)C(=O)N[C@@H]([C@@H](C)O)C(=O)NCCC5=NC(=CS5)C6=NC(=CS6)C(=O)NCCC[S+](C)C)O [Bleomycin] + Cc1cc(Nc2cc(N3CCN(C)CC3)nc(Sc3ccc(NC(=O)C4CC4)cc3)n2)n[nH]1 [Tozasertib] (partner 0.1 µM); conditions: main component drawn
In short: as §1

Bleomycin + Pemetrexed = compound: CC1=C(N=C(N=C1N)[C@H](CC(=O)N)NC[C@@H](C(=O)N)N)C(=O)N[C@@H]([C@H](C2=CN=CN2)OC3C(C(C(C(O3)CO)O)O)OC4C(C(C(C(O4)CO)O)OC(=O)N)O)C(=O)N[C@H](C)[C@H]([C@H](C)C(=O)N[C@@H]([C@@H](C)O)C(=O)NCCC5=NC(=CS5)C6=NC(=CS6)C(=O)NCCC[S+](C)C)O [Bleomycin] + Nc1nc2[nH]cc(CCc3ccc(C(=O)N[C@@H](CCC(=O)O)C(=O)O)cc3)c2c(=O)[nH]1 [Pemetrexed] (partner 0.2 µM); conditions: main component drawn
In short: as §1

Etoposide + Phenformin = compound: COc1cc([C@@H]2c3cc4c(cc3[C@@H](O[C@@H]3O[C@@H]5CO[C@@H](C)O[C@H]5[C@H](O)[C@H]3O)[C@H]3COC(=O)[C@H]23)OCO4)cc(OC)c1O [Etoposide] + N=C(N)NC(=N)NCCc1ccccc1 [Phenformin] (partner 250 µM)
In short: as §1

Cell Line | relative viability (Bleomycin + AZD7762; first compound 0.01 µM) | relative viability (Bleomycin + AZD7762; first compound 0.03162 µM) | relative viability (Bleomycin + AZD7762; first compound 0.1 µM) | relative viability (Bleomycin + AZD7762; first compound 0.3162 µM) | relative viability (Bleomycin + AZD7762; first compound 1 µM) | relative viability (Bleomycin + Tozasertib; first compound 0.01 µM) | relative viability (Bleomycin + Tozasertib; first compound 0.03162 µM) | relative viability (Bleomycin + Tozasertib; first compound 0.1 µM) | relative viability (Bleomycin + Tozasertib; first compound 0.3162 µM) | relative viability (Bleomycin + Tozasertib; first compound 1 µM) | relative viability (Bleomycin + Pemetrexed; first compound 0.01 µM) | relative viability (Bleomycin + Pemetrexed; first compound 0.03162 µM) | relative viability (Bleomycin + Pemetrexed; first compound 0.1 µM) | relative viability (Bleomycin + Pemetrexed; first compound 0.3162 µM) | relative viability (Bleomycin + Pemetrexed; first compound 1 µM) | relative viability (Etoposide + Phenformin; first compound 0.01 µM) | relative viability (Etoposide + Phenformin; first compound 0.03162 µM) | relative viability (Etoposide + Phenformin; first compound 0.1 µM) | relative viability (Etoposide + Phenformin; first compound 0.3162 µM) | relative viability (Etoposide + Phenformin; first compound 1 µM)
LC-2-ad | 0.761 | 0.775 | 0.644 | 0.316 | 0.26 | 0.395 | 0.354 | 0.34 | 0.247 | 0.276 | 0.267 | 0.265 | 0.251 | 0.254 | 0.219 | 0.602 | 0.559 | 0.456 | 0.344 | 0.268
LCLC-97TM1 | 0.135 | 0.141 | 0.102 | 0.0831 | 0.0741 | 0.176 | 0.217 | 0.218 | 0.158 | 0.195 | 0.169 | 0.165 | 0.189 | 0.141 | 0.0948 | 0.454 | 0.487 | 0.439 | 0.328 | 0.184
LCLC-103H | 0.7 | 0.8 | 0.792 | 0.666 | 0.418 | 0.427 | 0.479 | 0.476 | 0.279 | 0.234 | 0.452 | 0.443 | 0.455 | 0.487 | 0.419 | 0.316 | 0.348 | 0.329 | 0.346 | 0.305
LK-2 | 0.26 | 0.271 | 0.218 | 0.134 | 0.116 | 0.178 | 0.159 | 0.179 | 0.179 | 0.177 | 0.243 | 0.252 | 0.204 | 0.146 | 0.133 | 0.563 | 0.641 | 0.368 | 0.319 | 0.172
LOU-NH91 | 0.715 | 0.667 | 0.576 | 0.421 | 0.369 | 0.504 | 0.289 | 0.404 | 0.323 | 0.274 | 0.423 | 0.38 | 0.368 | 0.315 | 0.271 | 0.692 | 0.756 | 0.692 | 0.653 | 0.404
LU99A | 0.298 | 0.261 | 0.203 | 0.157 | 0.121 | 0.27 | 0.25 | 0.216 | 0.193 | 0.147 | 0.158 | 0.157 | 0.159 | 0.165 | 0.133 | 0.898 | 0.992 | 0.589 | 0.579 | 0.16
LXF-289 | 1.01 | 1.07 | 0.928 | 0.419 | 0.143 | 0.179 | 0.193 | 0.181 | 0.0822 | 0.0688 | 0.852 | 0.901 | 0.845 | 0.588 | 0.218 | 0.568 | 0.534 | 0.585 | 0.421 | 0.153
NCI-H23 | 0.259 | 0.241 | 0.159 | 0.121 | 0.119 | 0.208 | 0.268 | 0.217 | 0.161 | 0.135 | 0.419 | 0.342 | 0.285 | 0.187 | 0.171 | 0.822 | 0.834 | 0.633 | 0.392 | 0.259
NCI-H322M | 0.529 | 0.523 | 0.564 | 0.436 | 0.416 | 0.424 | 0.496 | 0.473 | 0.396 | 0.38 | 0.635 | 0.606 | 0.723 | 0.573 | 0.575 | 0.766 | 0.881 | 0.658 | 0.666 | 0.378
NCI-H358 | 0.417 | 0.579 | 0.551 | 0.426 | 0.446 | 0.103 | 0.101 | 0.0984 | 0.106 | 0.11 | 0.164 | 0.197 | 0.168 | 0.183 | 0.175 | 0.341 | 0.402 | 0.219 | 0.114 | 0.0696
NCI-H441 | 1.05 | 0.977 | 1.17 | 0.689 | 0.775 | 0.53 | 0.611 | 0.471 | 0.332 | 0.275 | 0.248 | 0.251 | 0.267 | 0.217 | 0.244 | 0.835 | 0.976 | 0.587 | 0.275 | 0.198
NCI-H460 | 0.409 | 0.475 | 0.269 | 0.134 | 0.0663 | 0.0837 | 0.101 | 0.153 | 0.0462 | 0.0258 | 0.0698 | 0.0674 | 0.0717 | 0.0385 | 0.0443 | 0.476 | 0.492 | 0.352 | 0.0419 | 0.0382
NCI-H522 | 0.76 | 0.796 | 0.65 | 0.519 | 0.468 | 0.538 | 0.542 | 0.504 | 0.418 | 0.346 | 0.844 | 0.815 | 0.85 | 0.49 | 0.321 | 0.665 | 0.623 | 0.535 | 0.595 | 0.614
NCI-H596 | 1.06 | 1.03 | 0.891 | 0.349 | 0.398 | 0.639 | 0.583 | 0.468 | 0.354 | 0.253 | 0.474 | 0.46 | 0.465 | 0.305 | 0.332 | 0.774 | 0.875 | 0.584 | 0.788 | 0.522
